In patent US9198848B2, “Process for obtaining extracts containing methylxanthine derivatives from cakes of plants of the genus Theobroma, as well as composition and use of said extract” (Natura Cosmeticos S.A., priority 2008, dated 2015):

Key:
[1] = tested on: UVA light-induced wrinkles; settings: topical; 10 mM; UVA 13.0 J/cm^2; 15-week study; cited from earlier work
bovine fosfodiesterase = settings: in vitro bovine fosfodiesterase; theobromine versus caffeine; cited from earlier work
human fibroblasts = test: Production of β-endorphin in a culture of human fibroblasts (ELISA); type: cell-based; settings: 0.038-0.600 μg/mL, 48 hr incubation, FIG. 2
Method: To carry out the experiments a cell line (pure/isolated culture) of human fibroblasts, adult age (mature), 6a passage was used.
The cells were cultured on appropriate culture plates (24 well) in specific medium culture, containing supplements required for cell maintenance and proliferation. For that purpose, 1×10^5 cells/well were seeded, confluence being reached after a 48 hour incubation, in a wet stove, 5% CO2, 37° C.
Subsequent to confluence (approximately 80% of the total area), the samples to be assessed were added, at the appropriate concentrations and previously established, according to table 1, always keeping a group as CONTROL (with no treatment), for comparative purposes in assessing effectiveness. The samples were previously diluted in proper culture medium.
(§1) After 48 hour incubation (wet stove, 5% CO2, 37° C.) with the samples, the supernatant of cell cultures were collected for assessing the beta-endorphin release. The possible citotoxicity of the compound was also assessed and taken into account. Assessment was qualitative only, by analysis of morphology and cell characteristics.
Quantification of the production of beta-endorphin by the cells in culture was carried out by the immunoenzymatic method ELISA (Enzyme-Linked Immunosorbent Assay), using a kit appropriate for determining beta-endorphin in biological samples. The samples were assessed in quadruplicate.

adipocytes = settings: ex vivo adipocytes; caffeine versus theobromine; lypolisis rate by intracelullar glycerol; cited from earlier work
human keratinocytes = test: Production of β-endorphin in a culture of human keratinocytes (ELISA); type: cell-based; settings: 0.038-0.600 μg/mL, 48 hr incubation, FIG. 3
Method: To carry out the experiments a cell line (pure/isolated culture) of human keranoticytes, adult age (mature), 7th passage was used.
The cells were cultured on appropriate culture plates (24 well) in specific medium culture, containing supplements required for cell maintenance and proliferation. For that purpose, 1×10^5 cells/well were seeded, confluence being reached after 72 hour incubation, in a wet stove, 5% CO2, 37° C.
Subsequent to confluence (approximately 80% of the total area), the samples to be assessed were added, at the appropriate concentrations and previously established, according to table 2, always keeping a group as CONTROL (with no treatment), for comparative purposes in assessing effectiveness. The samples were previously diluted in proper culture medium.
as §1
Quantification of the production of beta-endorphin by the cells in culture was carried out by the immunoenzymatic method ELISA (Enzyme-Linked immunosorbent Assay), using a kit appropriate for determining de beta-endorphin in biological samples. The samples were assessed in quadruplicate.

For `Cn1c(=O)c2c(ncn2C)n(C)c1=O` [caffeine], the “prevention of UVA light-induced wrinkles” value [1] is given as “effective”, the “power in the ability of increasing AMPc (fosfodiesterase inhibition)” value (bovine fosfodiesterase) is given as “identical” and the “production of β-endorphin compared with TC150905MX at the same concentration” value (human fibroblasts) is given as “higher production of β-endorphin”. The “power on noradrenaline-induced lypolisis” value (adipocytes) was “equivalent power” and the “production of β-endorphin compared with TC150905MX at the same concentration” value (human keratinocytes) was “higher production of β-endorphin”.

In the case of `Cn1cnc2c1c(=O)[nH]c(=O)n2C` [theobromine], the “power in the ability of increasing AMPc (fosfodiesterase inhibition)” value (bovine fosfodiesterase) is listed as “identical”.
